Results taken from ChEMBL document CHEMBL3860080, “Development of BCR-ABL degradation inducers via the conjugation of an imatinib derivative and a cIAP1 ligand” (Bioorg Med Chem Lett, 2016).
Active and inactive are the calls of the source. No cut-off for these calls is given here.

How the values were obtained:
[1] = Cytotoxicity against human K562 cells assessed as cell growth at 30 to 100 uM after 24 hrs by cell counting kit-8 assay relative to control; assay type: functional
[2] = molecular target: T1, Baculoviral IAP repeat-containing protein 2/Tyrosine-protein kinase ABL1/Breakpoint cluster region protein (Homo sapiens) (UniProt P00519+P11274+Q13490); experiment: Induction of cIAP1-mediated BCR-ABL protein degradation in human K562 cells assessed as BCR-ABL to beta-tubulin ratio at 100 uM after 24 hrs by Western blot analysis relative to control; assay type: cell-based
[3] = molecular target: T1, Baculoviral IAP repeat-containing protein 2/Tyrosine-protein kinase ABL1/Breakpoint cluster region protein (Homo sapiens); experiment: Induction of cIAP1-mediated BCR-ABL protein degradation in human K562 cells assessed as BCR-ABL to beta-tubulin ratio at 30 uM after 8 hrs by Western blot analysis relative to control; assay type: cell-based
[4] = molecular target: T1, Baculoviral IAP repeat-containing protein 2/Tyrosine-protein kinase ABL1/Breakpoint cluster region protein (Homo sapiens); experiment: Induction of cIAP1-mediated BCR-ABL protein degradation in human K562 cells assessed as BCR-ABL to beta-tubulin ratio at 100 uM after 8 hrs by Western blot analysis relative to control; assay type: cell-based
[5] = molecular target: T1, Baculoviral IAP repeat-containing protein 2/Tyrosine-protein kinase ABL1/Breakpoint cluster region protein (Homo sapiens); experiment: Induction of cIAP1-mediated BCR-ABL protein degradation in human K562 cells assessed as BCR-ABL to beta-tubulin ratio at 30 uM after 24 hrs by Western blot analysis relative to control; assay type: cell-based
K562 = experiment: Cytotoxicity against human K562 cells assessed as cell growth inhibition at 30 to 100 uM after 24 hrs by cell counting kit-8 assay; assay type: functional, cell-based
[6] = molecular target: T2, Bcr/Abl fusion protein (Homo sapiens) (UniProt P00519+P11274); experiment: Inhibition of BCR-ABL signaling pathway in human K562 cells assessed as suppression of STAT5 phosphorylation at 100 uM after 8 hrs by Western blot analysis; assay type: cell-based
[7] = molecular target: T2, Bcr/Abl fusion protein (Homo sapiens); experiment: Inhibition of BCR-ABL phosphorylation in human K562 cells at 100 uM after 8 hrs by Western blot analysis; assay type: cell-based
[8] = molecular target: T1, Baculoviral IAP repeat-containing protein 2/Tyrosine-protein kinase ABL1/Breakpoint cluster region protein (Homo sapiens); experiment: Induction of cIAP1-mediated BCR-ABL protein degradation in human K562 cells after 8 hrs by Western blot analysis; assay type: cell-based
[9] = molecular target: T2, Bcr/Abl fusion protein (Homo sapiens); experiment: Inhibition of BCR-ABL signaling pathway in human K562 cells assessed as suppression of CrkL phosphorylation at 100 uM after 8 hrs by Western blot analysis; assay type: cell-based
[10] = Effect on BCR-ABL protein levels in human K562 cells assessed as BCR-ABL to beta-tubulin ratio at 100 uM after 8 hrs by Western blot analysis relative to control; assay type: ADME, cell-based; conditions: k562, 8 h
[11] = molecular target: T2, Bcr/Abl fusion protein (Homo sapiens); experiment: Inhibition of BCR-ABL phosphorylation in human K562 cells at 100 uM after 8 hrs in presence of imatinib by Western blot analysis; assay type: cell-based
[12] = molecular target: T2, Bcr/Abl fusion protein (Homo sapiens); experiment: Inhibition of BCR-ABL signaling pathway in human K562 cells assessed as suppression of CrkL phosphorylation at 100 uM after 8 hrs in presence of imatinib by Western blot analysis; assay type: cell-based
[13] = Effect on BCR-ABL protein levels in human K562 cells assessed as BCR-ABL to beta-tubulin ratio at 100 uM after 8 hrs in presence of imatinib by Western blot analysis relative to control; assay type: ADME, cell-based; conditions: k562, 8 h
[14] = molecular target: T2, Bcr/Abl fusion protein (Homo sapiens); experiment: Inhibition of BCR-ABL signaling pathway in human K562 cells assessed as suppression of STAT5 phosphorylation at 100 uM after 8 hrs in presence of imatinib by Western blot analysis; assay type: cell-based

T2 sequence (P00519 whole entry, looked up, the tested form may be a part): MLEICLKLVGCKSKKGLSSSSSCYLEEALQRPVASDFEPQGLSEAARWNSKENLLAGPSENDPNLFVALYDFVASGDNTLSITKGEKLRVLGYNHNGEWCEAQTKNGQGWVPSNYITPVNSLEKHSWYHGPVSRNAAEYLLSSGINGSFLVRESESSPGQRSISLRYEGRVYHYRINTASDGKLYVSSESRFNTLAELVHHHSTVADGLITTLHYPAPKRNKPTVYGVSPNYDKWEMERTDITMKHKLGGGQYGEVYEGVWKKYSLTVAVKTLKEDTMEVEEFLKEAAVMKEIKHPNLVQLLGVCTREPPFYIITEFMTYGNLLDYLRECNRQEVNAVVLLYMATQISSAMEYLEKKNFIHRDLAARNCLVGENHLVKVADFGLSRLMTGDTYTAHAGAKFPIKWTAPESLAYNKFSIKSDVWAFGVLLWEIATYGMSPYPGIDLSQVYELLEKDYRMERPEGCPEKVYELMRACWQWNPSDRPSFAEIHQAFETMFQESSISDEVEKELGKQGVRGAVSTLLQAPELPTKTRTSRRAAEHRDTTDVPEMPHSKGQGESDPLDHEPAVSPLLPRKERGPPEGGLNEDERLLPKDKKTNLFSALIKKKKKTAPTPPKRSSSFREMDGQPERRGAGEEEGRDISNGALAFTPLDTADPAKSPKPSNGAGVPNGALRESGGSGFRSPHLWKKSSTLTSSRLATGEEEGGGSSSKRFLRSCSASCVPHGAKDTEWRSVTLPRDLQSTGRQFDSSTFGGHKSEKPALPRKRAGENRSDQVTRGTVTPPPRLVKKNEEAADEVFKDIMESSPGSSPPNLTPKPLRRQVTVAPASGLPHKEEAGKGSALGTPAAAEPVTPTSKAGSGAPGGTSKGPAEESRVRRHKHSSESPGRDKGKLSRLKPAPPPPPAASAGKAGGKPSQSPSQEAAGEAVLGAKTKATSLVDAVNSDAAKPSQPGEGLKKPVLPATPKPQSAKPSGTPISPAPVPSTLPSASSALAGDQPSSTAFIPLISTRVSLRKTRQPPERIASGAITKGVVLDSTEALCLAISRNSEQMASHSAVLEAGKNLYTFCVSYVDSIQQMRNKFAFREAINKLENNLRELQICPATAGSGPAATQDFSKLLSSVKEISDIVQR
T2 sequence (P11274 whole entry, looked up, the tested form may be a part): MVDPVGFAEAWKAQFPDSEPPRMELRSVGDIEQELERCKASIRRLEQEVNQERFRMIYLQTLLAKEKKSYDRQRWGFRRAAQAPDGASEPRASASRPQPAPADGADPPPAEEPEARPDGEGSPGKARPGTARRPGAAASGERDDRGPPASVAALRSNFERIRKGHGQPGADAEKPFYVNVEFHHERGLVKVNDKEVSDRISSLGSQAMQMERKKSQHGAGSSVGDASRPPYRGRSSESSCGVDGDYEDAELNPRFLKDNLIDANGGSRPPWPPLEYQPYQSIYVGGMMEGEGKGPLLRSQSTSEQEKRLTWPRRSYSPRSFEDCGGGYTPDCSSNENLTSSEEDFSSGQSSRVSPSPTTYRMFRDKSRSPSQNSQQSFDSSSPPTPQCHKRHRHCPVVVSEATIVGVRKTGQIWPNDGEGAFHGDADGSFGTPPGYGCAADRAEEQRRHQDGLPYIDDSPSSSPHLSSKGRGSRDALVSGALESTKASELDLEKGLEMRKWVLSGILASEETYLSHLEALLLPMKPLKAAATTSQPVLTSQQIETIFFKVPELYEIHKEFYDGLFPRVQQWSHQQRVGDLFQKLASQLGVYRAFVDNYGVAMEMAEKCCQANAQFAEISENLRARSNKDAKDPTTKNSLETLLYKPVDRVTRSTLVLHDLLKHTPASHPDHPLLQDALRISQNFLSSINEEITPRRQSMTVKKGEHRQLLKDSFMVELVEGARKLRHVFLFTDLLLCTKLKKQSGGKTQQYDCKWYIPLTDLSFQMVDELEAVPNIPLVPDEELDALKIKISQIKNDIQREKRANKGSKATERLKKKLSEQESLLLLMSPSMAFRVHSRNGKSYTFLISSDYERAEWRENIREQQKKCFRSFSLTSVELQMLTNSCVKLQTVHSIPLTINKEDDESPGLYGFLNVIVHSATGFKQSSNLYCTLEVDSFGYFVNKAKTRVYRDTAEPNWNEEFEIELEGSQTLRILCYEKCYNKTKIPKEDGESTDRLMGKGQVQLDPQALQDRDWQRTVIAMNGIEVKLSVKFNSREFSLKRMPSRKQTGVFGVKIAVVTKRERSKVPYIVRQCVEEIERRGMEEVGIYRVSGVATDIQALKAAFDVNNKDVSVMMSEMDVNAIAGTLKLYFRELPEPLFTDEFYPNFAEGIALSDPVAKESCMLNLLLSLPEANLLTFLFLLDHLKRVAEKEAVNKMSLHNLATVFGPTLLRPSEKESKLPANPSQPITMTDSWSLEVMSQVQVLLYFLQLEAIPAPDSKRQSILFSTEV
T1 sequence (P00519 whole entry, looked up): as the sequence (P00519 whole entry, looked up, the tested form may be a part) above
T1 sequence (P11274 whole entry, looked up): as the sequence (P11274 whole entry, looked up, the tested form may be a part) above
T1 sequence (Q13490 whole entry, looked up): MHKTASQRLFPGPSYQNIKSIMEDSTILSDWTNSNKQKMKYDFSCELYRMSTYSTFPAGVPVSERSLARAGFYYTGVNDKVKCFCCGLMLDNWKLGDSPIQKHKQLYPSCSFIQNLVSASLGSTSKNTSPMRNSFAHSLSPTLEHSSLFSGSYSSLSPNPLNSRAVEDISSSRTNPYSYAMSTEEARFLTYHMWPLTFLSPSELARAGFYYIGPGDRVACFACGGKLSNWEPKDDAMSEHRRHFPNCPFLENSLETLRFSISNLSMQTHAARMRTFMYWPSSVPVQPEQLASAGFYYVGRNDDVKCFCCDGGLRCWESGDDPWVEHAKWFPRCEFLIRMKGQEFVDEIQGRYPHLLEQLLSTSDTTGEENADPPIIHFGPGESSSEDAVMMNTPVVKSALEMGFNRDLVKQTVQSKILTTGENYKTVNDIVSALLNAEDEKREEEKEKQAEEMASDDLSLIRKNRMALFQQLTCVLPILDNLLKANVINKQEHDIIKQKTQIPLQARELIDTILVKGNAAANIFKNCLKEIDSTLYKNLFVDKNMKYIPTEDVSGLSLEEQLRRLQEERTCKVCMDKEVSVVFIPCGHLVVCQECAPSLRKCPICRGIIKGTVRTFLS

| Activity [2] [%] | Activity [3] [%] | Activity [4] [%] | Activity [5] [%] | inhibition [6] | inhibition [7] | Activity [8] | inhibition [9] | Activity [10] [%] | inhibition [11] | inhibition [12] | Activity [13] [%] | inhibition [14] | SMILES | Activity [1] [%] | growth inhibition (GI) (K562) |
| --- | --- | --- | --- | --- | --- | --- | --- | --- | --- | --- | --- | --- | --- | --- | --- |
| 81 | 121 | 113 | 105 | – | – | – | – | – | – | – | – | – | Cc1ccc(NC(=O)c2ccc(CNC(=O)CCCCNC(=O)[C@H](CC(C)C)NC(=O)[C@@H](O)[C@H](N)Cc3ccccc3)cc2)cc1Nc1nccc(-c2cccnc2)n1.Cl | 100 | – |
| 3 | 59 | 17 | 23 | Active | Active | Dose-dependent effect | Active | 27 | – | – | – | – | Cc1ccc(NC(=O)c2ccc(CNC(=O)CCCCCCNC(=O)[C@H](CC(C)C)NC(=O)[C@@H](O)[C@H](N)Cc3ccccc3)cc2)cc1Nc1nccc(-c2cccnc2)n1.Cl | – | Active |
| – | – | – | – | – | – | – | – | – | Active | Active | 99 | Active | COC(=O)[C@H](CC(C)C)NC(=O)[C@@H](O)[C@H](N)Cc1ccccc1 [BESTATIN METHYL ESTER] | – | – |
| 8 | 77 | 94 | 14 | – | – | – | – | – | – | – | – | – | Cc1ccc(NC(=O)c2ccc(CNC(=O)CCCCCCCCCCNC(=O)[C@H](CC(C)C)NC(=O)[C@@H](O)[C@H](N)Cc3ccccc3)cc2)cc1Nc1nccc(-c2cccnc2)n1 | – | Active |
